Source: the supplement of paper PMC10307832

Legend:
Assay in all cases: relative viability (nuclei count vs DMSO), 5 days (fraction); higher = more cells survive
[1] = compound: C1CSC2=C(C(=O)N1)SC3=C2C=C(C=C3)O [kb NB 142-70] + O=C(CCCCCCC(=O)Nc1ccccc1)NO [Vorinostat] (partner 1 µM)
Method in brief: (§1)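 Relative viability equals treated-well nuclei counts divided by vehicle-well nuclei counts. Counts came from 4× images of lung cancer cell lines grown in 1536-well plates for 5 days after pin-tool dosing on the day after seeding. Dosing used one drug alone or a fixed anchor-drug dose plus five library-drug doses (not always all listed) in √10 steps, and values are medians of duplicate plates.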

[2] = compound: NCC(=O)Nc1ccc(-n2nc(C(F)(F)F)cc2-c2ccc3c(ccc4ccccc43)c2)cc1 + CCNC(=O)c1noc(-c2cc(C(C)C)c(O)cc2O)c1-c1ccc(CN2CCOCC2)cc1 [Luminespib] (partner 0.01 µM)
Method in brief: as §1

[3] = compound: NCC(=O)Nc1ccc(-n2nc(C(F)(F)F)cc2-c2ccc3c(ccc4ccccc43)c2)cc1 + C[C@]1(O)C[C@@H](c2nc(-c3ccc4ccc(-c5ccccc5)nc4c3)c3c(N)nccn32)C1 [Linsitinib] (partner 1 µM)
Method in brief: as §1

[4] = compound: NCC(=O)Nc1ccc(-n2nc(C(F)(F)F)cc2-c2ccc3c(ccc4ccccc43)c2)cc1 + O=C(c1cc(Cc2n[nH]c(=O)c3ccccc23)ccc1F)N1CCN(C(=O)C2CC2)CC1 [Olaparib] (partner 8 µM)
Method in brief: as §1

Row | Cell Line | relative viability ([1]; first compound 0.1 µM) | relative viability ([1]; first compound 1 µM) | relative viability ([1]; first compound 3.162 µM) | relative viability ([2]; first compound 0.02 µM) | relative viability ([2]; first compound 0.06325 µM) | relative viability ([2]; first compound 0.2 µM) | relative viability ([2]; first compound 0.6325 µM) | relative viability ([2]; first compound 2 µM) | relative viability ([3]; first compound 0.02 µM) | relative viability ([3]; first compound 0.06325 µM) | relative viability ([3]; first compound 0.2 µM) | relative viability ([3]; first compound 0.6325 µM) | relative viability ([3]; first compound 2 µM) | relative viability ([4]; first compound 0.02 µM) | relative viability ([4]; first compound 0.06325 µM) | relative viability ([4]; first compound 0.2 µM) | relative viability ([4]; first compound 0.6325 µM) | relative viability ([4]; first compound 2 µM)
1 | EMC-BAC-2 | 0.556 | 0.472 | 0.16 | 1.11 | 1.23 | 1.18 | 1.17 | 1.18 | 0.86 | 0.848 | 0.853 | 0.81 | 0.821 | 0.433 | 0.514 | 0.539 | 0.483 | 0.5
2 | LU99A | 0.486 | 0.443 | 0.33 | 0.261 | 0.249 | 0.229 | 0.238 | 0.19 | 0.556 | 0.571 | 0.555 | 0.618 | 0.532 | 0.284 | 0.289 | 0.261 | 0.263 | 0.322
3 | ABC-1 | 1.13 | 0.975 | 0.453 | 0.478 | 0.813 |  | 0.372 | 0.748 | 0.731 | 0.917 |  | 0.915 | 0.855 | 0.594 | 0.671 |  | 0.921 | 0.78
4 | NCI-H2170 | 0.823 | 0.86 | 0.744 | 0.738 | 0.7 | 0.552 | 0.75 | 0.616 |  |  |  |  |  | 0.689 | 0.638 | 0.62 | 0.673 | 0.605
5 | NCI-H1299 |  |  |  |  |  |  |  |  | 0.937 | 0.971 | 1.05 | 0.929 | 0.999 | 0.96 | 0.916 | 0.977 | 0.918 | 0.998
6 | EBC-1 |  |  |  |  |  |  |  |  | 0.888 | 0.856 | 0.892 | 0.899 | 0.895 | 0.693 | 0.774 | 0.836 | 0.623 | 0.7
7 | NCI-H2347 | 0.629 | 0.641 | 0.599 | 0.427 | 0.634 | 0.7 | 0.686 | 0.7 | 0.953 | 0.98 | 1.04 | 1.07 | 1.01 | 0.572 | 0.611 | 0.648 | 0.63 | 0.521
8 | NCI-H1993 | 0.921 | 0.844 | 0.727 | 0.887 | 0.88 | 0.901 | 0.784 | 0.957 | 0.81 | 0.767 | 0.718 | 0.843 | 0.724 | 1.01 | 1.01 | 1.06 | 0.915 | 1.08
9 | NCI-H322M | 0.942 | 1.06 | 0.926 | 0.919 | 0.946 | 0.895 | 0.917 | 0.855 | 1.04 | 0.916 | 0.924 | 0.884 | 0.976 | 0.865 | 0.759 | 0.782 | 0.802 | 0.794
10 | NCI-H838 | 0.782 | 0.77 | 0.778 | 0.328 | 0.31 | 0.372 | 0.429 | 0.382 | 1.03 | 1.01 | 1.1 | 0.925 | 0.881 | 0.853 | 0.766 | 0.815 | 0.592 | 0.572
